Experimental data taken from patent US8883782B2, “Spiro-tetracyclic ring compounds as beta-secretase modulators and methods of use” (Amgen Inc., priority 2010, dated 2014).
Where two headings read alike, the source gives them in different places.

How the values were obtained:
[1] = target: Beta Secretase enzyme (BACE) (Homo sapiens, UniProt P56817); test: In vitro enzymatic BACE FRET (fluorescence resonance energy transfer) assay; format: biochemical; details: average IC50, enzyme assay; read-out: BACE 1 FRET assay
How it was run: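 Buffer 0.05 M acetate pH 4.2, 10% DMSO final, 100 uM genapol (sub-CMC); start with 50 nM FRET substrate; 1 h incubation; Tris stop; fluorescence read.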

[2] = system: Aβ40 in conditioned medium of cells stably expressing Amyloid Precursor Protein (APP); test: In vitro BACE cell-based assay (Aβ40 in conditioned medium, sandwich ELISA); details: read-out: HEK cell assay
How it was run: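 Quantification relied on pAb40/6E10 sandwich ELISA with Europium fluorescence counts, and IC50 was fitted versus concentration.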

[3] = Homo sapiens, HEK293, average IC50, HEK cells
[4] = Homo sapiens, HEK293, average IC50

Beta Secretase enzyme (BACE), sequence (P56817 46-501, species assumed): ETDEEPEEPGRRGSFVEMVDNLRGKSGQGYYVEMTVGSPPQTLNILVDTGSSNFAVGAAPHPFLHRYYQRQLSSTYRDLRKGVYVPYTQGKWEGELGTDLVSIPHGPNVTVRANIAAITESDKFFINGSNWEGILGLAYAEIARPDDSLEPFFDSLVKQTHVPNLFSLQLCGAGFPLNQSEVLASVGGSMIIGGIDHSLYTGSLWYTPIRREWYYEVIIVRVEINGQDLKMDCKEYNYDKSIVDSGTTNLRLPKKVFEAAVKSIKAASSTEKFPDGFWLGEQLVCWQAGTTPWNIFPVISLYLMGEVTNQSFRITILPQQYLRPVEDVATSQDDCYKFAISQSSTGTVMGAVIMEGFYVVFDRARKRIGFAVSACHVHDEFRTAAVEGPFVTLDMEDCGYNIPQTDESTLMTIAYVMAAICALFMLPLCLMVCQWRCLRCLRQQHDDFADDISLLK

Compound | IC50 [1] [nM] | IC50 [2, 3] [nM] | IC50 [2, 4] [nM] | IC50 ([2]; average IC50) [nM]
NC1=N[C@@]2(CO1)c1cc(-c3cccnc3F)ccc1Oc1c2ccnc1F [Example 658, (5S)-1-fluoro-7-(2-fluoro-3-pyridinyl)spiro[chromeno[2,3-c]pyridine-5,4′-[1,3]oxazol]-2′-amine] | 27.2 | 846 |  | 
CN(C)c1cc2c(cn1)Oc1ccc(-c3cccnc3)cc1[C@@]21COC(N)=N1 [Example 403, (5S)-N~3~,N~3~-dimethyl-7-(3-pyridinyl)spiro[chromeno[2,3-c]pyridine-5,4′-[1,3]oxazole]-2′,3-diamine] | 43 | 111 |  | 
CC1(COc2cc(F)c3c(c2)[C@@]2(CSC(N)=N2)c2cc(-c4cccnc4F)ccc2O3)COC1 [Example 793, (4R)-4′-fluoro-7′-(2-fluoro-3-pyridinyl)-2′-((3-methyl-3-oxetanyl)methoxy)spiro[1,3-thiazole-4,9′-xanthen]-2-amine] | 180 |  | 4810 | 
NC1=N[C@]2(CO1)c1cc(-c3ccnc(F)c3)ccc1Oc1cnc(-c3cncnc3)cc12 [Example 393, (5R)-7-(2-fluoro-4-pyridinyl)-3-(5-pyrimidinyl)spiro[chromeno[2,3-c]pyridine-5,4′-[1,3]oxazol]-2′-amine] | 63.3 | 224 |  | 
NC1=N[C@@]2(CO1)c1cc(-c3cncc(F)c3)ccc1Oc1c(F)cc(C3=CCOC3)cc12 [Example 288, (4S)-2′-(2,5-dihydro-3-furanyl)-4′-fluoro-7′-(5-fluoro-3-pyridinyl)spiro[1,3-oxazole-4,9′-xanthen]-2-amine] | 0.3 |  | 4.1 | 
CC1(COc2ccc3c(c2)[C@@]2(COC(N)=N2)c2cc(Br)cc(F)c2O3)COC1 [Example 437, (4S)-2′-bromo-4′-fluoro-7′-((3-methyl-3-oxetanyl)methoxy)spiro[1,3-oxazole-4,9′-xanthen]-2-amine] | 202 | 1920 |  | 
NC1=N[C@@]2(CO1)c1cc(-c3ccc(N4CCC(F)(F)C4)nc3)ccc1Oc1cnc(N3CCC(F)(F)C3)cc12 [Example 423, (5S)-3-(3,3-difluoro-1-pyrrolidinyl)-7-(6-(3,3-difluoro-1-pyrrolidinyl)-3-pyridinyl)spiro[chromeno[2,3-c]pyridine-5,4′-[1,3]oxazol]-2′-amine] | 458 | 402 |  | 
NC1=N[C@@]2(CO1)c1cc(-c3cccnc3F)ccc1Oc1c(F)cc(C3=CC(=O)OC3)cc12 [Example 801, 4-((4S)-2-amino-4′-fluoro-7′-(2-fluoro-3-pyridinyl)spiro[1,3-oxazole-4,9′-xanthen]-2′-yl)-2(5H)-furanone] | 2.2 |  | 170 | 
CC1(C)C=C(c2cnc3c(c2)[C@]2(CSC(N)=N2)c2cc(-c4cccc(C#N)c4F)ccc2O3)CCO1 [Example 779, 3-((5S)-2′-amino-3-(6,6-dimethyl-3,6-dihydro-2H-pyran-4-yl)spiro[chromeno[2,3-b]pyridine-5,4′-[1,3]thiazol]-7-yl)-2-fluorobenzonitrile] | 4.8 |  | 319 | 
Cc1cnc(F)c(-c2ccc3c(c2)[C@@]2(COC(N)=N2)c2cc(N4CCC(F)(F)C4)ncc2O3)c1 [Example 421, (5S)-3-(3,3-difluoro-1-pyrrolidinyl)-7-(2-fluoro-5-methyl-3-pyridinyl)spiro[chromeno[2,3-c]pyridine-5,4′-[1,3]oxazol]-2′-amine] | 0.5 | 5.3 |  | 
COc1cc(F)c2c(c1)[C@@]1(COC(N)=N1)c1cc(Br)c(F)cc1O2 [Example 524, (4R)-2′-bromo-3′,5′-difluoro-7′-methoxyspiro[1,3-oxazole-4,9′-xanthen]-2-amine] | 1140 | 1310 |  | 
NC1=N[C@@]2(CO1)c1cc(-c3cccnc3F)ccc1Oc1c(F)cc(N3CC4CC4C3)cc12 (stereo partly drawn) [Example 1054, (4S)-2′-(3-azabicyclo[3.1.0]hex-3-yl)-4′-fluoro-7′-(2-fluoro-3-pyridinyl)spiro[1,3-oxazole-4,9′-xanthen]-2-amine] | 0.6 |  | 62 | 
CC1(C#Cc2cnc3c(c2)[C@]2(COC(N)=N2)c2cc(OCc4ccccc4)ccc2O3)COC1 [Example 973, (5S)-7-(benzyloxy)-3-((3-methyl-3-oxetanyl)ethynyl)spiro[chromeno[2,3-b]pyridine-5,4′-[1,3]oxazol]-2′-amine] | 187 |  | 1370 | 
NC1=N[C@@]2(CO1)c1cc(-c3cncc(F)c3)ccc1Oc1c(F)cc(C3CCOCC3)cc12 [Example 448, (4S)-4′-fluoro-7′-(5-fluoro-3-pyridinyl)-2′-(tetrahydro-2H-pyran-4-yl)spiro[1,3-oxazole-4,9′-xanthen]-2-amine] | 2.4 | 7.7 |  | 
COc1nc(C2=CCCOC2)cc2c1Oc1ccc(-c3cccnc3F)cc1[C@@]21COC(N)=N1 [Example 833, (5S)-3-(5,6-dihydro-2H-pyran-3-yl)-7-(2-fluoro-3-pyridinyl)-1-methoxyspiro[chromeno[2,3-c]pyridine-5,4′-[1,3]oxazol]-2′-amine] | 0.7 |  | 21 | 
CC(C)(C#N)COc1cc(F)c2c(c1)[C@@]1(COC(N)=N1)c1cc(-c3cccnc3F)c(F)cc1O2 [Example 863, 3-(((4R)-2-amino-4′,6′-difluoro-7′-(2-fluoro-3-pyridinyl)spiro[1,3-oxazole-4,9′-xanthen]-2′-yl)oxy)-2,2-dimethylpropanenitrile] | 80.1 | 2360 |  | 
NC1=N[C@@]2(CO1)c1cc(-c3cncc(N4CC[C@@H](F)C4)c3)ccc1Oc1cnc(Cl)cc12 [Example 429, (5S)-3-chloro-7-(5-((3R)-3-fluoro-1-pyrrolidinyl)-3-pyridinyl)spiro[chromeno[2,3-c]pyridine-5,4′-[1,3]oxazol]-2′-amine] | 3230 | 2210 |  | 
Cc1ccncc1-c1ccc2c(c1)[C@@]1(COC(N)=N1)c1cc(C3=CCOCC3)ncc1O2 [Example 654, (5S)-3-(3,6-dihydro-2H-pyran-4-yl)-7-(4-methyl-3-pyridinyl)spiro[chromeno[2,3-c]pyridine-5,4′-[1,3]oxazol]-2′-amine] | 6.1 | 13 |  | 
N#Cc1cccc(-c2ccc3c(c2)[C@@]2(CSC(N)=N2)c2cc(C4=CCOCC4)cnc2O3)c1F [Example 763, 3-((5S)-2′-amino-3-(3,6-dihydro-2H-pyran-4-yl)spiro[chromeno[2,3-b]pyridine-5,4′-[1,3]thiazol]-7-yl)-2-fluorobenzonitrile] | 2.1 |  | 17 | 
(6R)-4-((4S)-2-amino-4′-fluoro-7′-(2-fluoro-3-pyridinyl)spiro[1,3-oxazole-4,9′-xanthen]-2′-yl)-6-methyl-5,6-dihydro-2H-pyran-2-one, (6S)-4-((4S)-2-amino-4′-fluoro-7′-(2-fluoro-3-pyridinyl)spiro[1,3-oxazole-4,9′-xanthen]-2′-yl)-6-methyl-5,6-dihydro-2H-pyran-2-one [Example 803] | 0.8 |  |  | 15
NC1=N[C@@]2(CO1)c1cc(-c3cncc(N4CCC(F)(F)C4)c3)ccc1Oc1cnc(Cl)cc12 [Example 427, (5S)-3-chloro-7-(5-(3,3-difluoro-1-pyrrolidinyl)-3-pyridinyl)spiro[chromeno[2,3-c]pyridine-5,4′-[1,3]oxazol]-2′-amine] | 640 | 610 |  | 
CC1(C#Cc2cc3c(cn2)Oc2ccc(-c4c(F)ccnc4F)cc2[C@@]32COC(N)=N2)COC1 [Example 957, (5S)-7-(2,4-difluoro-3-pyridinyl)-3-((3-methyl-3-oxetanyl)ethynyl)spiro[chromeno[2,3-c]pyridine-5,4′-[1,3]oxazol]-2′-amine] | 1.2 | 33 |  | 
NC1=N[C@@]2(CO1)c1cc(-c3cccnc3F)ccc1Oc1cc(F)c(C3CCOCC3)cc12 [Example 334, (4S)-3′-fluoro-7′-(2-fluoro-3-pyridinyl)-2′-(tetrahydro-2H-pyran-4-yl)spiro[1,3-oxazole-4,9′-xanthen]-2-amine] | 18.9 |  | 67.6 | 
NC1=N[C@@]2(CO1)c1cc(-c3cccnc3F)ccc1Oc1cc(F)c(-c3ccncc3)cc12 [Example 321, (4S)-3′-fluoro-7′-(2-fluoro-3-pyridinyl)-2′-(4-pyridinyl)spiro[1,3-oxazole-4,9′-xanthen]-2-amine] | 20.3 |  | 61.5 | 
CC1(C)C[C@@H](c2cc3c(cn2)Oc2ccc(-c4cccnc4F)cc2[C@@]32COC(N)=N2)CCO1 [Example 378, (5S)-3-((4S)-2,2-dimethyltetrahydro-2H-pyran-4-yl)-7-(2-fluoro-3-pyridinyl)spiro[chromeno[2,3-c]pyridine-5,4′-[1,3]oxazol]-2′-amine] | 4.3 |  | 26.4 | 
COc1cc(F)c2c(c1)[C@]1(CSC(N)=N1)c1cc(-c3cccnc3)ccc1O2 [Example 650, (4S)-4′-fluoro-2′-methoxy-7′-(3-pyridinyl)spiro[1,3-thiazole-4,9′-xanthen]-2-amine] | 9 | 251 |  | 
COc1cc(F)c2c(c1)[C@]1(COC(N)=N1)c1cc(-c3cncc(C#CC4(C)COC4)c3)ccc1O2 [Example 821, (4S)-4′-fluoro-2′-methoxy-7′-(5-((3-methyl-3-oxetanyl)ethynyl)-3-pyridinyl)spiro[1,3-oxazole-4,9′-xanthen]-2-amine] | 51.4 |  | 2900 | 
COCC#Cc1cncc(-c2ccc3c(c2)C2(COC(N)=N2)c2cc(OC)cc(F)c2O3)c1 (stereo not shown) [Example 843, 4′-fluoro-2′-methoxy-7′-(5-(3-methoxy-1-propyn-1-yl)-3-pyridinyl)spiro[1,3-oxazole-4,9′-xanthen]-2-amine] | 8.8 |  | 57 | 
NC1=N[C@@]2(CO1)c1cc(OCc3cccc(F)c3)ccc1Oc1ncc(-c3cccnc3)cc12 [Example 982, (5S)-7-((3-fluorobenzyl)oxy)-3-(3-pyridinyl)spiro[chromeno[2,3-b]pyridine-5,4′-[1,3]oxazol]-2′-amine] | 66.8 |  | 644 | 
